Measurements taken from US10548937B2, “Composition for the treatment of arthropathies and osteoarthritis” (Kolinpharma S.p.A., priority 2014, dated 2020).

Legend:
Assay type in all cases: cell-based
[1] = system: TNFα production by human chondrocytes; assay: ELISA test (Test 1a), TNFα in culture medium
Protocol: (§1) Human chondrocytes (Lonza, cat. N. CC-2550) derived from knee tissue were cultured in Chondrocyte Growth Medium (Lonza, cat. N. CC-3216) prepared according to the manufacturer's instructions with the addition of R3-insulin-like growth factor-1 [R3-IGF-1], human recombinant fibroblast growth factor beta [hrFGF-β], transferrin, insulin, foetal bovine serum [FBS] and gentamicin/amphotericin-B [GA]. The cells were maintained in an incubator at 37° C. and 5% CO2 and seeded every 3-4 days at a density of about 1×10^4 cells/cm^2.
(§2) After about 16-20 hours of incubation, the cells were processed for the various tests.
In the “sandwich” ELISA test, a 96-well plate is covered with a monoclonal antibody specific for a given cytokine. […] The addition of a sulfuric acid solution changes the colour of the solution from blue to yellow, blocking the development of the colour and allowing accurate reading of the absorbance of the samples at 450 nm.
For the purposes of the treatment, the medium was harvested and stored at −80° C. until the time of use for the test. […] The concentrations of cytokines released into the culture medium were then expressed as pg of cytokine/mg of total protein of the sample. […]
Release into the culture medium of the pro-inflammatory cytokines TNFα, IL-6 and IL-8 by the human chondrocytes was evaluated both in the absence and in the presence of stimulation with IL-1β for 16 hours. […]

human chondrocytes = assay: MTT test (Test 0), cell vitality; conditions: overnight incubation, 'likewise' = did not prove toxic
Protocol: as §1, §2
This colorimetric test is based on the transformation of the tetrazolium salt MTT (yellow) into formazan (violet), by the succinate-tetrazolium reductase system, which belongs to the mitochondrial respiratory chain and is active only in metabolically active cells. […] An insoluble colorant forms during this period, which, after dissolving by adding dissolution solution to the samples (10% SDS in 10 mM HCl) and after incubating overnight in an incubator, may be quantified by reading the absorbance of the samples at 595 nm (using 750 nm as reference wavelength). The measured absorbance correlates directly with the number of live cells.
To exclude a possible toxic effect attributable to the chosen incubation protocol, the cell vitality was quantified by means of an MTT test. […]

[2] = system: nuclear translocation of NF-kB in human chondrocytes; assay: Nuclear translocation of NF-kB (Test 1b), immunolabelling and confocal microscope; conditions: IL-1β about 20 hours
Protocol: as §1, §2
The chondrocytes were seeded onto 13 mm glass slides and, once they had reached confluence, were incubated overnight with the various treatments. […]
Images of the samples thus prepared were acquired on a confocal microscope (TCS SPE UV, Leica Microsystems) and were analysed with the software ImageJ v1.47h (http://imagej.nih.gov/ij) for the quantification of the nuclear translocation of NF-kB (Noursadeghi M et al., Journal of Immunological Methods, 2008, vol. 329, pages 194-200). […] These masks were then applied to the original NF-kB signals to calculate the fluorescence intensity in the nucleus and in the cytoplasm from the histograms of the intensities created with ImageJ. The mean fluorescence intensity ratio between the nucleus and the cytoplasm was then calculated for each sample.

Structure (SMILES) | effect on the production of TNFα ([1]; 10 μM in the culture medium) | toxicity to chondrocytes (MTT, cell vitality) (human chondrocytes; 10 μM) | effect on the translocation of NF-kB to the nucleus ([2]; celecoxib 10 μM) | effect on the production of TNFα ([1]; 100 μM in the culture medium) | toxicity to chondrocytes (MTT, cell vitality) (human chondrocytes; 100 μM) | effect on the translocation of NF-kB to the nucleus ([2]; diclofenac 100 μM)
Cc1ccc(-c2cc(C(F)(F)F)nn2-c2ccc(S(N)(=O)=O)cc2)cc1 [celecoxib] | no effect | likewise for the incubation with the positive controls | no significant effect | – | – | –
O=C(O)Cc1ccccc1Nc1c(Cl)cccc1Cl [diclofenac] | – | – | – | no effect | likewise for the incubation with the positive controls | no significant effect
